Laboratory results reported in patent publication US12216122B2, “Compositions and methods relating to detection, inhibition, and imaging of indoleamine 2,3-dioxygenase 1 (IDO1)” (Regeneron Pharmaceuticals, Inc., priority 2019, dated 2025).
Read-outs that look alike come from different tables or passages of the source. Values belong to the molecule of their own block, whether it stands above or below them. Numbered stars: 1 amine (or outer) side, 2 acyl side, 3 side chain; on linkers, the order of the positions; unused ones are H or OH. Bridge positions count the residues as written; N and C are the ends. Square brackets hold non-standard residues; d marks the D form. Triazole bridges read from a SMILES are 1,4-linked. Ends that are not written are not given here. Peptide text beside a SMILES is read from it. * marks the point of attachment. NH(CH2CH2O)5CH2CO = O=C(COCCOCCOCCOCCOCCN[*:1])[*:2]; X2 = O=C(CCCCCSc1nonc1/C(=N/O)Nc1ccc(F)c(Br)c1)*; X1 = O=C(CSc1nonc1/C(=N/O)Nc1ccc(F)c(Br)c1)*; Trp(1-Me) = Cn1cc(C[C@H](N)C(=O)O)c2ccccc21; PEG8 = NCCOCCOCCOCCOCCOCCOCCOCCOCCC(=O)O; Lys(N3) = [N-]=[N+]=NCCCC[C@H](N)C(=O)O; Phe(4-F) = N[C@@H](Cc1ccc(F)cc1)C(=O)O; PEG6 = NCCOCCOCCOCCOCCOCCOCCC(=O)O; Pra = C#CC[C@H](N)C(=O)O

Key:
[1] = molecular target: T1, IDO1 in IFNγ stimulated HeLa cells (Homo sapiens, UniProt P14902); experiment: IDO1 inhibition assay in HeLa cells stimulated with IFNγ; format: cell-based; details: for inhibition at 8 µM: HeLa
T1 construct: endogenous in cells; host or cells: HeLa cells stimulated with IFNγ
Method: Lead compounds prioritized in the recombinant IDO1 inhibition assay were advanced to a cellular IDO1 inhibition assay.
Protocol: HeLa cells were trypsinized and diluted to a density of 2×10^5 cells/mL in cell culture medium (DMEM+10% Fetal Bovine Serum (FBS)+1% Penicillin/Streptomycin). Sterile L-tryptophan was added to the cells at a final concentration of 300 μM. IFNγ at a final concentration of 100 ng/mL was added to HeLa cells to stimulate IDO1 expression. Unstimulated HeLa cells in the absence of IFNγ were used for background subtraction. HeLa cells with or without IFNγ were plated in 96-well Greiner black assay plates at a density of 22,000 cells/well. […] 8 μL of each compound dilution were then dispensed into the Greiner black 96-well assay plate(s) containing HeLa cells in triplicate, yielding final assay compound concentrations of 8 μM serially diluted to 1.27 nM. The plates were incubated at 37° C. with 5% CO2. After 48 hours, 24 μL of 0.5 M methyl isonipecotate in DMSO were added into each well and the plates were sealed and incubated at 37° C. with 5% CO2 overnight. The resulting fluorescence was measured in a BioTek Synergy H1 plate reader with a 400 nm excitation filter and a 510 nm emission filter. The fluorescence intensity of each well was corrected for the background observed in wells with non-IFNγ-treated cells and was expressed as a fraction of the intensity observed in wells of IFNγ-treated cells with vehicle only.

recombinant human IDO1 = molecular target: T2, recombinant human IDO1 (Homo sapiens, UniProt P14902); experiment: IDO1 Fluorogenic Inhibitor Screening Assay (enzyme inhibition); format: biochemical
T2 construct: purchased BPS Biosciences 72037
Method: The IDO1 Fluorogenic Inhibitor Screening Assay Kit (72037, BPS Biosciences) was used to measure the enzyme inhibition of human IDO1 in the presence of macrocyclic peptide ligands. IDO1 catalyzes the conversion of the essential amino acid L-tryptophan (L-Trp) to N-formylkynurenine (NFK). In the assay, the test inhibitor and enzyme were added to a sample containing L-Trp substrate. After incubation for 1 h at room temperature, 20 μL Fluorescence Solution was added and incubated at 37° C. for 4 h to produce a fluorescent product. Activity was measured by reading sample fluorescence at λ=510 nm following excitation of the reaction product at λ=400 nm.

[2] = molecular target: T3, His-tagged IDO1 human recombinant protein (Homo sapiens, UniProt P14902); experiment: IDO1 ELISA (Affinity Assay): sandwich ELISA, biotinylated ligand immobilized on NEUTRAVIDIN plate; format: binding; details: binding analysis of VHL-linked Epitope 2 ligand; read-out: EC50
T3 construct: purchased BPS Biosciences 71182
Method: Protocol: A black 96-well NEUTRAVIDIN® Coated High Binding Capacity plate (15510, Pierce) was coated with 2 μM biotinylated macrocyclic peptide ligand in TBS (25 mM Tris-HCl, 150 mM NaCl, pH 7.6) for 2 h at room temperature. The plate was aspirated and then washed with Wash Buffer (0.05% (v/v) TWEEN® 20 in PBS, 6×). His-tagged IDO1 human recombinant protein (71182, BPS Biosciences) was serially diluted in Wash Buffer (from 200 to 0 nM) and incubated in the designated microwells for 1 h at room temperature. Microwells were aspirated and subsequently washed with Wash Buffer (11×). To detect the bound IDO1 protein, Alkaline Phosphatase (AP)-conjugated Anti-6×HIS TAG® antibody [HIS-1] (ab49746, Abcam) was prepared at 1:10,000 dilution and added to the microwells for 1 h at room temperature. The plate was aspirated and washed with Wash Buffer (5×). ATTOPHOS® AP Fluorescent Substrate System (S1000, Promega) was employed to develop the microwells. Using an excitation wavelength of 430 nm, fluorescent emission at 535 nm was recorded by Beckman Coulter DTX880 photometer. Titration curves were fit using a four-parameter regression curve fitting program to determine EC50 values.
For these assays, a dilution series of His-tagged IDO1 human recombinant protein was captured using the macrocyclic peptide ligands immobilized on a NEUTRAVIDIN®-coated plate. […] The sequences of the peptide ligands are listed in Table 1, where D-amino acids are denoted in lowercase, Me-Trp=1-methyl-L-tryptophan, and F-Phe=4-fluoro-L-phenylalanine. Chemical structures are shown below Table 1.
The D-alanine substituted, biotin-PEG3-modified macrocycles were tested in the IDO1 ELISA (Affinity assay). For these assays, a dilution series of His-tagged IDO1 human recombinant protein was captured using macrocycles immobilized on a NEUTRAVIDIN®-coated plate.

HeLa cells = experiment: Cellular internalization of fluorescent IDO1 ligands (flow cytometry); format: cell-based; details: Cy5 or FITC label, flow cytometry
Method: Internalization of fluorescently labeled peptides (using Cy5 or FITC) was measured by concentration dependent flow cytometry of unstimulated HeLa cells incubated for one hour with the peptide. […] Internalization was also testing using a cellular inhibition assay, which occurs over 48 hours (rather than the one hour for the flow cytometry assay). Internalized FITC-wyvay (SEQ ID NO:2) at 48 hours was compared to one hour in both unstimulated and stimulated HeLa cells (Table 13). Cell penetration of FITC-wyvay (SEQ ID NO:2) increases with time; more internalized FITC-wyvay (SEQ ID NO:2) can be detected at 48 hours compared to one hour. After one hour, no difference in intracellular staining of FITC-wyvay (SEQ ID NO:2) is observed in unstimulated versus stimulated cells. At 48 hours, there is a slight increase in intracellular FITC-wyvay (SEQ ID NO:2) in stimulated compared to unstimulated cells.
Protocol: HeLa cells were cultured to confluence (˜500,000 cells) in 6-well plates in cell culture medium (DMEM+10% Fetal Bovine Serum (FBS)+1% Penicillin/Streptomycin) or in cell culture medium containing 100 ng/mL IFNγ to stimulate IDO1 expression. The cells were treated with 2 μM or 8 μM macrocyclic IDO1 ligand labeled with either Cy5 or FITC for either 1 hour, 24 hours, or 48 hours as indicated. After treatment, the ligands were aspirated and the cells were washed twice with 1× Phosphate Buffered Saline (PBS). The cells were then harvested by treatment with 0.05% Trypsin-1×EDTA for 5 min at 37° C. Trypsin was quenched by the addition of PBS+2% FBS. The cells in suspension were washed twice in PBS+2% FBS, then resuspended in 500 μL PBS+2% FBS and analyzed for Cy5 or FITC fluorescence using a BD LSR Fortessa X-20 flow cytometer or/and ImageStream X Mark II imaging flow cytometer. Flow Cytometry Standard (fcs) data files were analyzed using FlowJo Software version 10.

[3] = read-out: % inhibition at 8 μM, HeLa, Table 17
[4] = Table 18, read-out: Inhibition HeLa IC50
[5] = Table 19, read-out: Inhibition HeLa cells IC50
[6] = Table 18, read-out: Inhibition Recombinant IDO1 IC50
[7] = Table 19, read-out: Inhibition Human rIDO1 IC50
[8] = PEG linker length series, wyry, read-out: IC50
[9] = Table 17, read-out: Inhibition Recombinant IDO1 IC50
[10] = N-methylated heterobiligands, PEG6 linker, read-out: IC50
[11] = PEG linker length series, wyvay, read-out: IC50
[12] = Table 15, read-out: Inhibition Recombinant IDO1 IC50

T2 sequence (P14902 whole entry): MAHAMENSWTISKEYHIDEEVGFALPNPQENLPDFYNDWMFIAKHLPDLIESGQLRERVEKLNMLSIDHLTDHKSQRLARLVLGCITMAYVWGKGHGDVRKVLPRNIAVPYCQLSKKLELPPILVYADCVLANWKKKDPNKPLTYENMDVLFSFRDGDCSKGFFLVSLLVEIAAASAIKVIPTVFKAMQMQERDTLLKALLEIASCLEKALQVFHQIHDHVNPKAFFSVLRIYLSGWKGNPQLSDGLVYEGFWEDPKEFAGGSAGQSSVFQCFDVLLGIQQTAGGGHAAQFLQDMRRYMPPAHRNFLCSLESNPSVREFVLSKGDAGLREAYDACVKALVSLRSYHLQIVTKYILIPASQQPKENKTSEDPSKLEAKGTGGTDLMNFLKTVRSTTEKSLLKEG
T1 sequence (P14902 whole entry): as above
T3 sequence (P14902 whole entry): as above

Molecule: CC(C)[C@H]1NC(=O)[C@@H](Cc2ccc(O)cc2)NC(=O)[C@@H](Cc2c[nH]c3ccccc23)NC(=O)[C@@H](NC(=O)CCOCCOCCOCCOCCOCCOCCOCCOCCNC(=O)CSc2nonc2/C(=N/O)Nc2ccc(F)c(Br)c2)Cc2cn(nn2)CCCC[C@@H](C(N)=O)NC(=O)[C@@H](Cc2ccc(O)cc2)NC(=O)[C@@H](C)NC1=O [Deprotected-Inh-PEG8-wyvay] ({X1-PEG8}-[Pra][dW][dY][dV][dA][dY][Lys(N3)]-NH2; triazole 1-7)
inhibition at 8 µM [1, 3]: 77.3%

Molecule: CC(C)[C@H]1NC(=O)[C@@H](Cc2ccc(O)cc2)NC(=O)[C@@H](Cc2c[nH]c3ccccc23)NC(=O)[C@@H](NC(=O)COCCOCCOCCOCCOCCNC(=O)CCCCCSc2nonc2/C(=N/O)Nc2ccc(F)c(Br)c2)Cc2cn(nn2)CCCC[C@@H](C(N)=O)NC(=O)[C@@H](Cc2ccc(O)cc2)NC(=O)[C@@H](C)NC1=O [Inh2-PEG5-wyvay] (X2-[NH(CH2CH2O)5CH2CO][Pra][dW][dY][dV][dA][dY][Lys(N3)]-NH2; triazole 2-8)
IC50 [1, 4]: 0.221 µM
IC50 [1, 5]: 0.221 µM
IC50 (recombinant human IDO1; [6]): 539 nM
IC50 (recombinant human IDO1; [7]): 539 nM

Molecule: O=C(O)CCCCCSc1nonc1/C(=N/O)Nc1ccc(F)c(Br)c1 [Inh2]
IC50 [1, 4]: 0.997 µM
IC50 [1, 5]: 0.997 µM
IC50 (recombinant human IDO1; [6]): 343 nM
IC50 (recombinant human IDO1; [7]): 343 nM

Molecule: Cy5-nlf(Me-Trp)(F-Phe): Cy5 labeled Epitope 2 macrocycle nlf(Me-Trp)(F-Phe) ([dN][dL][dF][Trp(1-Me)][Phe(4-F)]; triazole (positions not given here); not fully specified (N-terminus, C-terminus, bridges); printed as Cy5-nlf(Me-Trp)(F-Phe); also: Cy5 label, macrocycle, closure not given here)
Internalization of fluorescently labeled peptide, in words (HeLa cells): detected by flow cytometry and imaging

Molecule: FITC-nlf(Me-Trp)(F-Phe): FITC labeled Epitope 2 macrocycle nlf(Me-Trp)(F-Phe) ([dN][dL][dF][Trp(1-Me)][Phe(4-F)]; triazole (positions not given here); also: FITC label, site not given here, macrocycle by click between N-terminal Pra and C-terminal Az4, not in chain)
Internalization of fluorescently labeled peptide, in words (HeLa cells): reduced but detectable and concentration dependent

Molecule: d-Hex-Inh-PEG4-wyvay: heterobiligand with linker modified to increase lipophilicity, PEG4 ([dW][dY][dV][dA][dY]; also: d-Hex-inhibitor via PEG4 linker)
Cellular IDO1 inhibition, in words [1]: only showed inhibition at higher concentrations

Molecule: d-Hex-Inh-PEG6-wyvay: heterobiligand with linker modified to increase lipophilicity, PEG6 ([dW][dY][dV][dA][dY]; also: d-Hex-inhibitor via PEG6 linker)
Cellular IDO1 inhibition, in words [1]: only showed inhibition at higher concentrations

Second part, led by results:

inhibition at 8 µM [1, 3]: 47.8%
Inhibition HeLa IC50 nM ([1]; Table 17): no curve fit
IC50 (recombinant human IDO1; [8]): 338 nM
IC50 (recombinant human IDO1; [9]): 338 nM
Molecule: N=C(N)NCCC[C@H]1NC(=O)[C@@H](Cc2ccc(O)cc2)NC(=O)[C@@H](Cc2c[nH]c3ccccc23)NC(=O)[C@@H](NC(=O)CCOCCOCCOCCOCCOCCOCCNC(=O)CSc2nonc2/C(=N/O)Nc2ccc(F)c(Br)c2)Cc2cn(nn2)CCCC[C@@H](C(N)=O)NC(=O)[C@@H](Cc2ccc(O)cc2)NC1=O [Inh-PEG6-wyry] ({X1-PEG6}-[Pra][dW][dY][dR][dY][Lys(N3)]-NH2; triazole 1-6)
IDO1 inhibition potency relative to the small molecule (Inh) alone, in words (recombinant human IDO1): more than three times as potent as Inh alone

inhibition at 8 µM ([1]; read-out: % inhibition at 8 μM, HeLa cells, Table 19): 36.1%
inhibition at 8 µM [1, 3]: 36.1%
IC50 ([1]; Table 17, cells print μM, read-out: Inhibition HeLa IC50): 35.7 µM
IC50 [1, 5]: 35.7 µM
IC50 (recombinant human IDO1; [10]): 44 nM
IC50 (recombinant human IDO1; [11]): 265 nM
IC50 (recombinant human IDO1; [12]): 44 nM
IC50 (recombinant human IDO1; [7]): 265 nM
Molecule: CC(C)[C@H]1NC(=O)[C@@H](Cc2ccc(O)cc2)NC(=O)[C@@H](Cc2c[nH]c3ccccc23)NC(=O)[C@@H](NC(=O)CCOCCOCCOCCOCCOCCOCCNC(=O)CSc2nonc2/C(=N/O)Nc2ccc(F)c(Br)c2)Cc2cn(nn2)CCCC[C@@H](C(N)=O)NC(=O)[C@@H](Cc2ccc(O)cc2)NC(=O)[C@@H](C)NC1=O [Inh-PEG6-wyvay] ({X1-PEG6}-[Pra][dW][dY][dV][dA][dY][Lys(N3)]-NH2; triazole 1-7)

EC50 [2]: > 1000 nM
inhibition at 8 µM [1, 3]: 99.6%
IC50 ([1]; Table 15, read-out: Inhibition HeLa cells IC50): 0.125 µM
IC50 ([1]; Table 17, read-out: Inhibition HeLa IC50): 0.244 µM
IC50 [1, 4]: 0.406 µM
IC50 [1, 5]: 0.406 µM
IC50 (recombinant human IDO1; [10]): 928 nM
IC50 (recombinant human IDO1; [8]): 1090 nM
IC50 (recombinant human IDO1; [11]): 1050 nM
IC50 (recombinant human IDO1; [12]): 928 nM
IC50 (recombinant human IDO1; [9]): 1090 nM
IC50 (recombinant human IDO1; [6]): 1090 nM
IC50 (recombinant human IDO1; [7]): 1050 nM
IC50 (recombinant human IDO1; effect of linker and of protection of the inhibitor, read-out: IC50): 616 nM
IC50 (recombinant human IDO1; linker composition series, read-out: IC50): 693 nM
Molecule: O=C(O)CSc1nonc1/C(=N/O)Nc1ccc(F)c(Br)c1 [Inh]

Cellular IDO1 inhibition, in words [1]: good inhibition/cell penetration
Molecule: d-Hex-Inh-PEG5-wyvay: heterobiligand with linker modified to increase lipophilicity, PEG5 ([dW][dY][dV][dA][dY]; also: d-Hex-inhibitor via PEG5 linker)
